Source: patent US10765690B2, “TLR4 agonists and compositions thereof and their use in the treatment of cancer” (GlaxoSmithKline Intellectual Property Development Limited, priority 2015, dated 2020)
“And” between values parts separate entries of the source, which are not always exact repeats. Equal entries are not always repeated.

Tested on: Murine EMT6 breast epithelial cells
Assay: EMT6 breast epithelial syngeneic solid tumor model
Assay type: in vivo, Balb/c mice
Description: The in vivo anti-tumor efficacy of the TLR4 agonist (CRX-601) was assessed in the murine EMT6 breast epithelial syngeneic solid tumor model as a monotherapy versus control and anti-PD-1 treatment. Seven to eight week old female Balb/c mice (BALB/cAnNHsd, Envigo) were used in these studies. Murine EMT6 breast epithelial cells (ATCC catalog number lot # CRL-2755) were cultured in RPMI growth medium supplemented with 10% fetal bovine serum (FBS) in a humidified 37° C. incubator with 5% CO2. EMT6 cells cultured in logarithmic growth were harvested from tissue culture flasks and centrifuged for 5 minutes at 450×g at 4° C. for ten minutes to pellet cells. The supernatant was discarded, and cells were washed in ice cold phosphate buffered saline (PBS) without calcium and magnesium and centrifuged again for 5 minutes at 450×g at 4′C for ten minutes to pellet cells. The cells were resuspended in sterile RPMI media without FBS and adjusted to a cell concentration of 1×10^6 cells/ml. 100 μl of the cell stock was implanted via subcutaneous injection into the right flank of each Balb/c mouse. After seven or nine days when the average tumor size reached approximately 100 mm^3, mice were randomized into study cohorts according to tumor size and the first treatment dose was given. The TLR4 agonist (CRX-601) or vehicle was dosed via a systemic intravenous dose once per week for three total doses. The CRX-601 vehicle was 0.5% Glycerol/4% Dextrose, eE 810115-V. The rat anti-mouse PD-1 receptor antibody (clone RMP1-14, BioXCell catalog # BE0146, lot #5792-599016J1) or Rat IgG2a isotype control antibody (BioXCell catalog # BE0089,lot #601416M1B) was dosed via an intraperitoneal injection given every other day for a total of three doses, with the first dose given concurrently with the first CRX-601 dose. Caliper measurements were taken three times per week to assess tumor growth, and mice with tumors >2,000 mm^3 for 2 consecutive measurements or mice with tumors which formed open ulcers were removed from the study. Tumor volume was calculated using the formula (0.52)×(Length)×(Width2). All studies were conducted in accordance with the GSK Policy on the Care, Welfare and Treatment of Laboratory Animals and were reviewed by the Institutional Animal Care and Use Committee at GSK. To determine significance of tumor growth inhibition, tumor volumes 19 days post first dose were compared between the different treatment groups. Treatments were compared by standard ANOVA methods followed by FDR adjustment for multiplicity. Response is square root of volume, for homoscedasticity (equal variance) reasons. Kaplan-Meier (KM) method was carried out to estimate the survival probability of different treatment groups at a given time. For these survival analyses, “Death” means crossing the tumor volume cutoff (2000 mm3). “Survival” means proportion of mice not “Dead”, and “Survival time” means days until “Death”. If a mouse crossed the volume cutoff between two measurement days, then the day of “Death” was estimated by linear interpolation. If a mouse crossed the volume cutoff more than once, the first crossing was used. Treatments were compared by the standard log-rank test for two treatments. The log-rank p-values were adjusted for multiplicity using the FDR (false discovery rate) method. Significance was defined as FDR<=0.05. All calculations and graphs were done using R software, version 3.2.3.

## CCCCCCCCCCC[C@H](CC(=O)N[C@H]1[C@H](OC[C@H](NC(=O)C[C@@H](CCCCCCCCCCC)OCCCCCCCCCC)C(=O)O)O[C@H](CO)[C@@H](OP(=O)(O)O)[C@@H]1OC(=O)C[C@@H](CCCCCCCCCCC)OCCCCCCCCCC)OCCCCCCCCCC [CRX-601]
25 ug CRX-601 IV, by day 33 post EMT6 inoculation, p-value=0.03
  increase in survival compared to vehicle group 1: statistically significant
25 ug CRX-601 group, day 33
  mice remained on study: 6 mice
  tumor free mice: 4 mice
25 ug CRX-601 group, day 33, individual mice
  tumor volumes of remaining tumor-bearing mice: 649 mm^3 and 382 mm^3
25 ug CRX-601 intravenous once per week x3 (+200 ug Rat IgG2a), 19 days after the initial dose, p-value<0.001
  tumor growth inhibition compared to vehicle group 1: statistically significant tumor growth inhibition
25 ug CRX-601 intravenous once per week x3, 19 days after the initial dose, p-value=0.041
  tumor growth inhibition compared to anti-PD-1 treatment group 3: statistically significant tumor growth inhibition
